Reference: patent US5073559A, “2-Substituted purinone having phosphodiesterase inhibitory activity” (Smith Kline & French Laboratories, Ltd., priority 1988, dated 1991)

How the values were obtained:
[1] = molecular target: calmodulin insensitive cyclic GMP phosphodiesterase (Homo sapiens, UniProt O76074); test: Inhibition of calmodulin insensitive cyclic GMP phosphodiesterase; type: biochemical; conditions: procedure of European Patent Application No. 293063; range over the listed Examples; read-out: IC50 (concentration of inhibitor required for 50% inhibition of enzyme activity)
Procedure: The activity of the compounds of the present invention as inhibitors of a calmodulin insensitive cyclic GMP phosphodiesterase was measured using the procedure described in European Patent Application No. 293063. […] The compounds of the present invention have the advantage that the are selective in not inhibiting cyclic AMP phosphodiesterase (type III)

[2] = system: ovalbumen antigen challenge bronchoconstrictor response; test: Anti-allergic activity: inhibition of ovalbumen-induced bronchoconstrictor response in sensitised guinea-pigs; type: in vivo, guinea-pig (Duncan Hartley); conditions: ovalbumen 1 mg/kg i.v.
Procedure: Male Duncan Hartley guinea-pigs (250-300 g) were sensitised to ovalbumen by i.p. injection of 2 ml of 50mg.ml^-1 i.p. and 0.2 ml s.c. Three weeks later they were anaesthetised with 60 mg.kg^-1 sodium pentobarbitone. The trachea was cannulated and the animal respired at a rate of 40 breaths per minute and at an initial tracheal inflation pressure of 16 mmHg. Tracheal inflation pressure was measured by a transducer connected to a side arm of the respiration circuit. The carotid artery was cannulated for the measurement of blood pressure and the signal was used to trigger an instantaneous rate meter. A jugular vein was cannulated for the administration of drug and allergen. After surgery the animals were allowed to stabilise and the drug was administered i.v. as a bolus. Following this, ovalbumen 1 mg.kg^-1 was injected i.v. as the antigen challenge either 2, 15 or 30 minutes following drug treatment and the peak bronchoconstrictor response recorded. For the control group ovalbumen only was given. One ovalbumen challenge per guinea-pig was used and n=6 for each time point. The percentage increase in tracheal inflation pressure was calculated. The following results indicating an anti-allergic activity were obtained.

[3] = system: U46619-induced bronchoconstriction; test: Bronchodilatation in vivo: inhibition of U46619-induced bronchoconstriction in anaesthetised guinea-pigs; set-up: species or system guinea-pig (Dunkin Hartley); conditions: Cavia porcellus, iv; i.v. bolus; U46619 infused i.v. at 2.5 nmol/min; range over the listed Examples; read-out: BD50 (dose of compound required to reduce the U46619-induced bronchoconstriction by 50%)
Procedure: Male guinea-pigs of the Dunkin Hartley strain (500-600 g) were anaesthetised with Sagatal (pentobarbital sodium) (60 mg/kg). Airway resistance was measured using a modification of the classical Konzett-Rossler technique (J. Pharm. Methods, 13, 309-315, 1985). U46619 (9,11-methanoepoxy-PGH2) was infused i.v. at a rate of 2.5 nmol/min, this produced a steady state of bronchoconstriction (approximately 120% increase from basal airway resistance). The compound under test was administered by i.v. bolus injection, and the subsequent peak inhibition of bronchoconstriction recorded.
The dose of compound required to reduce the U46619-induced bronchoconstriction by 50% is given as the BD50. The compounds of Examples 2, 3, 6, 11, 14 and 15 had BD50 values in the range 0.58-7.24 μmol/kg.

| Compound | IC50 [1] [nM] | ED50 [3] [µmol/kg] | also measured |
| --- | --- | --- | --- |
| CCCOc1ccccc1-c1nc2nc(SC)[nH]c2c(=O)[nH]1 [Example 9, 2-(2-Propoxyphenyl)-8-methylthiopurin-6-one] | 310 to 4800 | – | – |
| CCCOc1ccc(Cl)cc1-c1nc2nc[nH]c2c(=O)[nH]1 [Example 15, 2-(2-Propoxy-5-chlorophenyl)purin-6-one] | – | 0.58 to 7.24 | % Inhibition of Control Bronchoconstrictor Response 30 min after drug administration ([2]; dose 16.6 μmol/kg i.v.): 30% |
| CCCOc1ccc([N+](=O)[O-])cc1-c1nc2nc[nH]c2c(=O)[nH]1 [Example 11, 2-(2-Propoxy-5-nitrophenyl)purin-6-one] | – | 0.58 to 7.24 | – |
| CCCOc1ccccc1-c1nc2nc(S)[nH]c2c(=O)[nH]1 [Example 8, 2-(2-Propoxyphenyl)-8-mercaptopurin-6-one] | 310 to 4800 | – | – |
| CCCOc1ccc(OC)cc1-c1nc2nc[nH]c2c(=O)[nH]1 [Example 14, 2-(2-Propoxy-5-methoxyphenyl)purin-6-one] | – | 0.58 to 7.24 | – |
| O=c1[nH]c2nc(-c3ccccc3OCC3CC3)[nH]c(=O)c2[nH]1 [Example 3, 2-(2-Cyclopropylmethoxyphenyl)purin-6,8-dione] | – | 0.58 to 7.24 | % Inhibition of Control Bronchoconstrictor Response 30 min after drug administration ([2]; dose 18.4 μmol/kg i.v.): 24% |
| CCCOc1ccccc1-c1nc2nc(-c3ccccc3)[nH]c2c(=O)[nH]1 [Example 6, 2-(2-Propoxyphenyl)-8-phenylpurin-6-one] | 310 to 4800 | 0.58 to 7.24 | – |
| O=c1[nH]c(-c2ccccc2OCC2CC2)nc2nc[nH]c12 [Example 2, 2-(2-Cyclopropylmethoxyphenyl)purin-6-one] | – | 0.58 to 7.24 | – |
